In the first assay the target is human GABA A receptor α5β3γ2 (Homo sapiens (Human), UniProt P18507+P31644). Kind of assay: [3H]flumazenil competition binding assay, human GABA A α5β3γ2 receptors expressed in HEK293 cells.
Conditions: not given
As to the method:
The affinity of compounds at GABA A receptor subtypes was measured by competition for [3H]flumazenil (85 Ci/mmol; Roche) binding to HEK293 cells expressing rat (stably transfected) or human (transiently transfected) receptors of composition α1β3γ2, α2β3γ2, α3β3γ2 and α5β3γ2.
Cell pellets were suspended in Krebs-tris buffer (4.8 mM KCl, 1.2 mM CaCl2, 1.2 mM MgCl2, 120 mM NaCl, 15 mM Tris; pH 7.5; binding assay buffer), homogenized by polytron for ca. 20 sec on ice and centrifuged for 60 min at 4° C. (50000 g; Sorvall, rotor: SM24=20000 rpm). The cell pellets were resuspended in Krebs-tris buffer and homogenized by polytron for ca. 15 sec on ice. Protein was measured (Bradford method, Bio-Rad) and aliquots of 1 mL were prepared and stored at −80° C.
Assays were incubated to equilibrium for 1 hour at 4° C. and harvested onto GF/C uni-filters (Packard) by filtration using a Packard harvester and washing with ice-cold wash buffer (50 mM Tris; pH 7.5). After drying, filter-retained radioactivity was detected by liquid scintillation counting. Ki values were calculated using Excel-Fit (Microsoft) and are the means of two determinations.
Turning to `Cc1onc(-c2ccccc2)c1COc1cc(C2=CCN(C)CC2)ccn1` [Example 57, 1-Methyl-2′-(5-methyl-3-phenyl-isoxazol-4-ylmethoxy)-1,2,3,6-tetrahydro-[4,4′]bipyridinyl], the Ki was determined as 32.1 nM.

Still in this assay, the particulars now being: human receptor; displacement of [3H]flumazenil (0.5 nM); means of two determinations; read-out: hKi GABAAa5.
As to `Cc1onc(-c2ccccc2)c1COc1cc(OCc2ccccc2)ccn1` [Example 56, 4-Benzyloxy-2-(5-methyl-3-phenyl-isoxazol-4-ylmethoxy)-pyridine], the Ki was found to be 35.1 nM.
With `Cc1onc(-c2ccccc2)c1COc1cc(C(=O)NCC(F)(F)F)ccn1` [Example 58, 2-(5-Methyl-3-phenyl-isoxazol-4-ylmethoxy)-N-(2,2,2-trifluoro-ethyl)-isonicotinamide], the Ki was 37.8 nM.
With `Cc1onc(-c2ccccc2)c1COc1cc(C(=O)NC2CCOCC2)ccn1` [Example 59, 2-(5-Methyl-3-phenyl-isoxazol-4-ylmethoxy)-N-(tetrahydro-pyran-4-yl)-isonicotinamide], the Ki was found to be 55.4 nM.
The same measure, in the same setting: the figure for `Cc1nc(OCc2c(-c3ccccc3)noc2C)ccc1C(=O)NC1CCOCC1` [Example 60, 2-Methyl-6-(5-methyl-3-phenyl-isoxazol-4-ylmethoxy)-N-(tetrahydro-pyran-4-yl)-nicotinamide] is 38.7 nM; for `Cc1onc(-c2ccccc2)c1COc1cc(C(F)(F)F)c(C(=O)O)cn1` [Example 61, 6-(5-Methyl-3-phenyl-isoxazol-4-ylmethoxy)-4-trifluoromethyl-nicotinic acid] it is 18.4 nM; for `Cc1onc(-c2ccccc2)c1COc1cc(C(F)(F)F)c(C(=O)NC(C)C)cn1` [Example 62, N-Isopropyl-6-(5-methyl-3-phenyl-isoxazol-4-ylmethoxy)-4-trifluoromethyl-nicotinamide] it is 14.6 nM.
As to `Cc1onc(-c2ccccc2)c1COc1cc(C(F)(F)F)c(C(=O)NC2CCOCC2)cn1` [Example 63, 6-(5-Methyl-3-phenyl-isoxazol-4-ylmethoxy)-N-(tetrahydro-pyran-4-yl)-4-trifluoromethyl-nicotinamide], the Ki came to 10.7 nM.
As for `COC(=O)c1cnc(OCc2c(-c3ccccc3)noc2C)c(Br)c1` [Example 64, 5-Bromo-6-(5-methyl-3-phenyl-isoxazol-4-ylmethoxy)-nicotinic acid methyl ester], the Ki worked out at 34.4 nM.
Take `Cc1onc(-c2ccccc2)c1COc1ncc(C(=O)NC2CCOCC2)cc1Br` [Example 65, 5-Bromo-6-(5-methyl-3-phenyl-isoxazol-4-ylmethoxy)-N-(tetrahydro-pyran-4-yl)-nicotinamide]: the Ki is 24.4 nM.
On the same count and under the same terms, for `Cc1cc(C(=O)NC2CCOCC2)cnc1OCc1c(-c2ccccc2)noc1C` [Example 66, 5-Methyl-6-(5-methyl-3-phenyl-isoxazol-4-ylmethoxy)-N-(tetrahydro-pyran-4-yl)-nicotinamide] the value was 1.4 nM.
With `Cc1nc(OCc2c(-c3ccccc3)noc2C)c(Br)cc1C(=O)NC1CCOCC1` [Example 67, 5-Bromo-2-methyl-6-(5-methyl-3-phenyl-isoxazol-4-ylmethoxy)-N-(tetrahydro-pyran-4-yl)-nicotinamide], the Ki turned out to be 47.3 nM.
Still for that read-out and setting: for `Cc1onc(-c2ccccc2)c1COc1ncc(C(=O)NC(C)C)cc1Br` [Example 68, 5-Bromo-N-isopropyl-6-(5-methyl-3-phenyl-isoxazol-4-ylmethoxy)-nicotinamide] the value was 18.6 nM; for `Cc1cc(C(=O)NC(C)C)cnc1OCc1c(-c2ccccc2)noc1C` [Example 69, N-Isopropyl-5-methyl-6-(5-methyl-3-phenyl-isoxazol-4-ylmethoxy)-nicotinamide], 2.95 nM.
For the molecule `Cc1onc(-c2ccccc2)c1COc1ccc(C(=O)N(C)C(C)C)cn1` [Example 70, N-Isopropyl-N-methyl-6-(5-methyl-3-phenyl-isoxazol-4-ylmethoxy)-nicotinamide], the Ki turned out to be 53.1 nM.
With `Cc1onc(-c2ccccc2)c1COc1ccc(C(=O)N2CCOCC2(C)C)cn1` [Example 71, (3,3-Dimethyl-morpholin-4-yl)-[6-(5-methyl-3-phenyl-isoxazol-4-ylmethoxy)-pyridin-3-yl]-methanone], the Ki was determined as 80.8 nM.
Consider `CCOC(=O)c1ccc(OCc2c(-c3ccccc3)noc2C)nc1C` [Example 72, 2-Methyl-6-(5-methyl-3-phenyl-isoxazol-4-ylmethoxy)-nicotinic acid ethyl ester], for which the Ki worked out at 19.3 nM.
Turning to `Cc1onc(-c2ccccc2)c1COc1cccc(C#N)n1` [Example 73, 6-(5-Methyl-3-phenyl-isoxazol-4-ylmethoxy)-pyridine-2-carbonitrile], the Ki was 20.9 nM.
As for `Cc1onc(-c2ccccc2)c1COc1ccc(C2(O)COC2)cn1` [Example 74, 3-[6-(5-Methyl-3-phenyl-isoxazol-4-ylmethoxy)-pyridin-3-yl]-oxetan-3-ol], the Ki came to 28.1 nM.
Regarding `Cc1onc(-c2ccccc2)c1COc1ccc(C(=O)NCC2CCCOC2)cn1` (centres unmarked) [Example 76, 6-(5-Methyl-3-phenyl-isoxazol-4-ylmethoxy)-N-(tetrahydro-pyran-3-ylmethyl)-nicotinamide], the Ki was 11.7 nM.
Regarding `Cc1onc(-c2ccccc2)c1COc1ccc(C(=O)NCC2CCOC2)cn1` (centres unmarked) [Example 77, 6-(5-Methyl-3-phenyl-isoxazol-4-ylmethoxy)-N-(tetrahydro-furan-3-ylmethyl)-nicotinamide], the Ki was 4.6 nM.
Still for that read-out and setting: the figure for `Cc1onc(-c2ccccc2)c1COc1ccc(C(=O)N2CCCn3nccc32)cn1` [Example 78, (6,7-Dihydro-5H-pyrazolo[1,5-a]pyrimidin-4-yl)-[6-(5-methyl-3-phenyl-isoxazol-4-ylmethoxy)-pyridin-3-yl]-methanone] is 40.7 nM; for `Cc1onc(-c2ccccc2)c1COc1ccc(C(=O)NC2COCc3ccccc32)cn1` (centres unmarked) [Example 79, N-Isochroman-4-yl-6-(5-methyl-3-phenyl-isoxazol-4-ylmethoxy)-nicotinamide] it is 68.1 nM.
Still for that read-out and setting: the figure for `Cc1onc(-c2ccccc2)c1COc1ccc(C(=O)NCc2cc(C(C)C)no2)cn1` [Example 80, N-(3-Isopropyl-isoxazol-5-ylmethyl)-6-(5-methyl-3-phenyl-isoxazol-4-ylmethoxy)-nicotinamide] is 44.4 nM.
In the case of `Cc1onc(-c2ccccc2)c1COc1ccc(C(=O)N2CCC23COC3)cn1` [Example 82, [6-(5-Methyl-3-phenyl-isoxazol-4-ylmethoxy)-pyridin-3-yl]-(6-oxa-1-aza-spiro[3.3]hept-1-yl)-methanone], the Ki was 16.8 nM.
On to `Cc1onc(-c2ccccc2)c1COc1ccc(C(=O)OC(C)C)cn1` [Example 83, 6-(5-Methyl-3-phenyl-isoxazol-4-ylmethoxy)-nicotinic acid isopropyl ester], for which the Ki stood at 4.7 nM.
`Cc1onc(-c2ccccc2F)c1COc1ccc(C(=O)NCC(F)(F)F)cn1` [Example 84, 6-[3-(2-Fluoro-phenyl)-5-methyl-isoxazol-4-ylmethoxy]-N-(2,2,2-trifluoro-ethyl)-nicotinamide]: the Ki turned out to be 4.5 nM.
As to `Cc1onc(-c2ccccc2F)c1COc1ccc(C(=O)NCC(F)(F)C(F)(F)F)cn1` [Example 85, 6-[3-(2-Fluoro-phenyl)-5-methyl-isoxazol-4-ylmethoxy]-N-(2,2,3,3,3-pentafluoro-propyl)-nicotinamide], the Ki worked out at 9.8 nM.
For `Cc1onc(-c2ccccc2F)c1COc1ccc(C(=O)NC(C)C)cn1` [Example 86, 6-[3-(2-Fluoro-phenyl)-5-methyl-isoxazol-4-ylmethoxy]-N-isopropyl-nicotinamide], the Ki worked out at 3.6 nM.

(Values after US8846719B2, “Isoxazolo-pyridine derivatives” (Roche Palo Alto LLC, priority 2007, dated 2014).)
